Measurements as given in patent publication US8501741B2, “Optically active compound of prulifloxacin for treating infection and preparation method thereof” (priority 2010, dated 2013).

Experiments:
[1] = background statement; cited from earlier work
Escherichia coli = assay: Systemic infection in mouse, E. coli; type: in vivo; conditions: Kunming mice, intraperitoneal infection with minimal lethal dose, drug by gavage 1 hour after infection, 7 days observation, Bliss method; for ED50: Escherichia coli, ip
Text: (§1) 1. Origin of testing samples:
(§2) • Levo-ofloxacin was commercially available.
(§3) Prulifloxacin was self-made product, prepared according to the method disclosed in the publication J. Med. Chem. 1992, 35, 4727-4738.
(§4) Levo-prulifloxacin, dextro-prulifloxacin, levo-prulifloxacin hydrochloride, levo-prulifloxacin mesylate were self-made, prepared according to the method described in examples (see respective ordinal number in parenthesis following name of testing drug in Table 6);
(§5) 2. Experimental strains: Bacteria for infecting animals were pathogenic strains isolated from clinic;
(§6) 3. Preparation of liquid bacteria culture: 2-3 colonies were picked and inoculated into M-H broth, followed by incubation for 18 hours at 37° C. The culture was diluted appropriately with 5% dried yeast liquid for use.
(§7) 4. Experimental animals: Healthy SPF Kunming mice were selected, with 18-22 g in body weight, half male and half female.
(§8) 5. Determination of minimal lethal dose of bacteria: Mice were divided randomly, resulting in 10 mice in each group, half male and half female. The above-mentioned bacterial cultures in different dilutions were injected intraperitoneally into mice, in the amount of 0.5 mL per mouse, followed by continuous observation for 7 days after infection and recording the number of death mice. The minimal amount of bacteria which caused 100% death of mice was deemed as minimal lethal dose of bacteria and thereby was adopted for infection tests in vivo. 6. Preparation of testing drugs: The testing drugs were prepared with 1% CMC, respectively. 7. Method for infection and treatment: Experimental animals were divided randomly but evenly based on gender and body weight, resulting in 10 mice in each group, half male and half female. Minimal lethal dose of bacteria were injected intraperitoneally into mice in amount of 0.5 mL/mice, respectively. After infected for 1 hour, the testing drugs in different doses were administered to mice by gavage in the amount of 0.2 ml/10 g, respectively. Seven dose groups of 0.05, 0.10, 0.20, 0.40, 0.80, 1.60, 3.20 mg/kg were set up for Escherichia coli while seven dose groups of 0.50, 1.0, 2.0, 4.0, 8.0, 16.0, 32.0 mg/kg were set up for Pseudomonas aeruginosa. Observation was conducted after administration and death statuses of the mice were recorded. A control group was set up and the number of mice which died within 7 days after infection was recorded at the same time. The obtained data were processed by Bliss method to calculate ED50. 8.

[2] = Acute toxicity test in NIH mice, limited dosage by gavage; conditions: both sexes, mouse, in vivo, po, 5000 mg/kg, single gavage, 2 weeks observation, read-out: LD50 of oral administration
Description: Acute toxicity test was conducted in NIH mice by administrating limited-dosages of drugs.
Levo-prulifloxacin; control groups: racemic prulifloxacin group and blank control group
20 NIH mice in each group, half male and half female, 18˜22 g in body weight, were fasted overnight. Levo-prulifloxacin and racemic prulifloxacin were prepared to a 250 mg/ml suspension with 0.3% CMC, respectively, and then administered to the mice by gavage at once in the amount of 0.2 mL/10 g. After administration, observation was firstly conducted for 4 hours continuously, and then once a day for 2 weeks continuously. Animals' responses to toxicity, appearing time and recovering time thereof were recorded. On Day 2, 4, 8, 11 and 15, body weight of the animals were measured and amounts of feed intake were determined. Observation indexes included diet, appearance, behavior, secretion, excrement and the like Animals' death was recorded, starting time, severity, duration of toxic symptoms and toxic reactions, whether the symptoms or reactions are reversible and the like were also recorded. Animals dying from poisoning and dying animals were dissected roughly in time while all other animals were dissected roughly after completing observation. […] The obtained data were processed by Bliss method to calculate LD50.

Pseudomonas aeruginosa = assay: Systemic infection in mouse, P. aeruginosa; type: in vivo; conditions: Kunming mice, intraperitoneal infection with minimal lethal dose, drug by gavage 1 hour after infection, 7 days observation, Bliss method; for ED50: Pseudomonas aeruginosa, ip
Text: as §1, §2, §3, §4, §5, §6, §7, §8

bacteria = conditions: ulifloxacin enantiomers, small samples from chiral preparation chromatographic column; cited from earlier work

| Structure (SMILES) | ED50 (Escherichia coli) [mg/kg] | ED50 (Pseudomonas aeruginosa) [mg/kg] | ED50 E. coli (Escherichia coli) [mg/kg] | ED50 P. aeruginosa (Pseudomonas aeruginosa) [mg/kg] | further results |
| --- | --- | --- | --- | --- | --- |
| Cc1oc(=O)oc1CN1CCN(c2cc3c(cc2F)c(=O)c(C(=O)O)c2n3C(C)S2)CC1 (racemic) [(+/−) Prulifloxacin, (±)6-fluoro-1-methyl-7-[4-(5-methyl-2-oxo-1,3-dioxolen-4-yl)methyl-1-piperazinyl]-4-oxo-4H-[1,3]thiazeto[3,2-α]quinoline-3-carboxylic acid, reference compound] | 0.53 | 4.04 |  |  | half-life [1]: 8 to 9 h; time at which peak blood concentration is attained [1]: 0.5 to 1 h; LD50 at 2 weeks [2]: > 5000 mg/kg |
| C[C@@H]1Sc2c(C(=O)O)c(=O)c3cc(F)c(N4CCNCC4)cc3n21 (single isomer, unassigned) [levo-enantiomer] |  |  |  |  | antibacterial activity of levo-enantiomer relative to dextro-enantiomer (bacteria): 2 to 8 times |
| Cc1oc(=O)oc1CN1CCN(c2cc3c(cc2F)c(=O)c(C(=O)O)c2n3C(C)S2)CC1 (single isomer, unassigned; (+)) [(+) Prulifloxacin] |  |  | 1.58 | 8.20 |  |
| Cc1oc(=O)oc1CN1CCN(c2cc3c(cc2F)c(=O)c(C(=O)O)c2n3[C@H](C)S2)CC1.Cl [(−) Prulifloxacin hydrochloride, S-(−)-6-fluoro-1-methyl-7-[4-(5-methyl-2-oxo-1,3-dioxolen-4-yl)methyl-1-piperazinyl]-4-oxo-4H-[1,3]thiazeto[3,2-α]quinoline-3-carboxylic acid hydrochloride] |  |  | 0.12 | 1.25 |  |
| CS(=O)(=O)O.Cc1oc(=O)oc1CN1CCN(c2cc3c(cc2F)c(=O)c(C(=O)O)c2n3[C@H](C)S2)CC1 [(−) Prulifloxacin mesylate, S-(−)-6-fluoro-1-methyl-7-[4-(5-methyl-2-oxo-1,3-dioxolen-4-yl)methyl-1-piperazinyl]-4-oxo-4H-[1,3]thiazeto[3,2-α]quinoline-3-carboxylic acid mesylate] |  |  | 0.11 | 1.22 |  |
| Cc1oc(=O)oc1CN1CCN(c2cc3c(cc2F)c(=O)c(C(=O)O)c2n3[C@H](C)S2)CC1 [(−) Prulifloxacin, S-(−)-6-fluoro-1-methyl-7-[4-(5-methyl-2-oxo-1,3-dioxolen-4-yl)methyl-1-piperazinyl]-4-oxo-4H-[1,3]thiazeto[3,2-α]quinoline-3-carboxylic acid] | 0.11 | 1.02 |  |  | LD50 at 2 weeks [2]: > 5000 mg/kg |
| CC1COc2c(N3CCN(C)CC3)c(F)cc3c(=O)c(C(=O)O)cn1c23 (centres unmarked) [Ofloxacin, reference compound] | 0.82 | 16.1 |  |  |  |
